One experiment has as its system HCT116 cells. As to the kind of experiment: Growth inhibition assay (MTS). Type of experiment: cell-based. The note with it: Homo sapiens, read-out: Growth Inhibition (GI50, uM) HCT116. In outline:
(§1)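 Cells seeded at 10^4 per well, grown 24 h at 37° C, then exposed to compound at various concentrations for 48 hours. MTS added for 2 h; absorbance at 490 nm gave viability, with cytotoxicity calculated per concentration against pre-treatment reading.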

A further experiment has as its system SW480 cells. As to the kind of experiment: Growth inhibition assay (MTS). The experiment is classed as cell-based. The note with it: Homo sapiens, read-out: Growth Inhibition (GI50, uM) SW480. In outline:
as §1

The mark [1] stands for this setting: HCT-116, 48 h, Table 5, HCT116 cells, 48 hours treatment, MTS.
Setting [2] is: SW480, 48 h, Table 5, SW480 cells, 48 hours treatment, MTS.
The mark [3] stands for this setting: HCT-116, Table 5, HCT116 cells, 48 hours treatment, MTS.
Where [4] appears, read: Table 5, SW480 cells, 48 hours treatment, MTS.

Molecules are shown by their SMILES. Read-outs that look alike come from different tables or passages of the source.

Consider `CCCN1CC(=O)N2[C@@H](Cc3ccc(NC=O)cc3)C(=O)N(Cc3ccc(F)cc3F)C[C@@H]2N1C(=O)NCc1ccccc1` [Compound 130], for which the GI50 with HCT116 cells (setting [1]) worked out at 10.7 ± 1.7 µM; in the experiment on SW480 cells (setting [2]), 17.3 ± 1.2 µM.
As to `C=CCN1CC(=O)N2[C@@H](Cc3ccc(OP(=O)(O)O)cc3)C(=O)N(Cc3ccc(Cl)c(N(C)C)c3)C[C@@H]2N1C(=O)NCc1ccccc1` [Compound 131], the GI50 was 1.7 ± 0.5 µM in the experiment on HCT116 cells (setting [3]) and 2.3 ± 0.1 µM in the experiment with SW480 cells (setting [4]).
Turning to `C=CCN1CC(=O)N2[C@@H](Cc3ccc(O)cc3)C(=O)N(Cc3cc(F)c(F)cc3N(C)C)C[C@@H]2N1C(=O)NCc1ccccc1` [Compound 132], the GI50 in the experiment on HCT116 cells (setting [1]) was 2.2 ± 1.2 µM; in the experiment with SW480 cells (setting [2]), 2.5 ± 0.1 µM.
Regarding `C=CCN1CC(=O)N2[C@@H](Cc3ccc(OP(=O)(O)O)cc3)C(=O)N(Cc3cc(F)c(F)cc3N(C)C)C[C@@H]2N1C(=O)NCc1ccccc1` [Compound 133], the GI50 with HCT116 cells (setting [3]) was 2.1 ± 1.8 µM; with SW480 cells (setting [4]), 2.3 ± 0.1 µM.
`C=CCN1CC(=O)N2[C@@H](Cc3ccc(O)cc3)C(=O)N(Cc3ccccc3)C[C@@H]2N1C(=O)NCc1ccccc1` [Compound 134]: the GI50 with HCT116 cells (setting [1]) amounted to 0.8 ± 0.7 µM; with SW480 cells (setting [2]), 1.4 ± 0.4 µM.
As to `[2H]C([2H])(c1ccc(O)cc1)[C@H]1C(=O)N(Cc2cccc3ccccc23)C[C@H]2N1C(=O)CN(C)N2C(=O)NCc1ccccc1` [Compound 135], the GI50 came to 3.1 ± 0.8 µM in the experiment with HCT116 cells (setting [1]) and 3.2 ± 0.4 µM in the experiment with SW480 cells (setting [2]).
Taken in the same sequence, the figures for `[2H]c1cc(C[C@H]2C(=O)N(Cc3cccc4ccccc34)C[C@H]3N2C(=O)CN(C)N3C(=O)NCc2ccccc2)cc([2H])c1O` [Compound 136] were 3 ± 0.9 µM and 3.4 ± 0.4 µM.
Taken in the same sequence, the figures for `C=CCN1CC(=O)N2[C@@H](Cc3ccc(O)cc3)C(=O)N(Cc3cc(C)cc4c3N(C)CCO4)C[C@@H]2N1C(=O)NCc1ccccc1` [Compound 137] were 1.3 ± 0.3 µM and 1.4 ± 0.4 µM.
For `CCCN1CC(=O)N2[C@@H](Cc3ccc(O)cc3)C(=O)N(Cc3ccccc3)C[C@@H]2N1C(=O)NCc1ccccc1` [Compound 138], in that order: 3.9 ± 0.7 µM and 4 ± 0.4 µM.
For the compound `C=CCN1CC(=O)N2[C@@H](Cc3ccc(OP(=O)(O)O)cc3)C(=O)N(Cc3cccc4c3OCCN4C)C[C@@H]2N1C(=O)NCc1ccccc1` [Compound 139], the GI50 with HCT116 cells (setting [3]) worked out at 1 ± 0.2 µM; in the experiment on SW480 cells (setting [4]), 1.2 ± 0.1 µM.
For the compound `C=CCN1CC(=O)N2C(Cc3ccc(O)cc3)C(=O)N(Cc3ccc(F)cc3F)CC2N1C(=O)NCc1ccccc1` (stereo not shown) [Compound 140], the values for the GI50 with HCT116 cells (setting [1]) and in the experiment on SW480 cells (setting [2]) were 1.7 ± 0.1 µM and 1.6 ± 0.5 µM, respectively.
For the compound `C=CCOC(=O)NCCCC[C@H]1C(=O)N(Cc2ccc(Cl)c(Cl)c2)C[C@H]2N1C(=O)CN(C)N2C(=O)NCc1ccccc1` [Compound 141], the GI50 turned out to be 21 ± 2.6 µM in the experiment with HCT116 cells (setting [1]) and 35 ± 11 µM with SW480 cells (setting [2]).
Regarding `[2H]c1cc(O)cc([2H])c1C[C@H]1C(=O)N(Cc2cccc3ccccc23)C[C@H]2N1C(=O)CN(C)N2C(=O)NCc1ccccc1` [Compound 142], the GI50 with HCT116 cells (setting [1]) stood at 3.3 ± 0.4 µM; with SW480 cells (setting [2]), 3.2 ± 0.3 µM.
Consider `C=CCN1CC(=O)N2[C@@H](Cc3ccc(OC(=O)NCCN(C)C)cc3)C(=O)N(Cc3ccc(F)cc3F)C[C@@H]2N1C(=O)NCc1ccccc1` [Compound 143], for which the GI50 with HCT116 cells (HCT-116, 48 h) was found to be 1.2 ± 0.1 µM; with SW480 cells (SW480, 48 h) it was 1.2 ± 0.1 µM.
In the case of `C=CCN1CC(=O)N2[C@@H](Cc3ccc(OP(=O)(O)O)cc3)C(=O)N(Cc3ccccc3)C[C@@H]2N1C(=O)NCc1ccccc1` [Compound 144], the results for the GI50 in the experiment on HCT116 cells (setting [3]) and in the experiment with SW480 cells (setting [4]) were 0.6 ± 0.1 µM and 0.5 ± 0.03 µM, respectively.
As to `C=CCN1CC(=O)N2[C@@H](Cc3ccc(O)cc3)C(=O)N(Cc3ccc(F)cc3F)C[C@@H]2N1C(=O)NCc1ccc(F)cc1` [Compound 145], the GI50 is 5.9 ± 0.3 µM with HCT116 cells (setting [1]) and 6.4 ± 0.1 µM with SW480 cells (setting [2]).
Regarding `CC(C)N1CC(=O)N2[C@@H](Cc3ccc(O)cc3)C(=O)N(Cc3ccc(F)cc3F)C[C@@H]2N1C(=O)NCc1ccccc1` [Compound 146], the GI50 was determined as 4 ± 0.5 µM in the experiment on HCT116 cells (setting [1]) and 3.7 ± 0.5 µM with SW480 cells (setting [2]).
On to `C=CCN1CC(=O)N2[C@@H](Cc3ccc(O)cc3)C(=O)N(Cc3ccc(F)c(F)c3)C[C@@H]2N1C(=O)NCc1ccccc1` [Compound 148], for which the GI50 in the experiment on HCT116 cells (setting [1]) was found to be 1 ± 0.3 µM; in the experiment on SW480 cells (setting [2]) it was 1.3 ± 0.1 µM.
Turning to `C=CCN1CC(=O)N2[C@@H](Cc3ccc(O)cc3)C(=O)N(Cc3ccc(F)cc3F)C[C@@H]2N1C(=O)NCc1ccc(Cl)c(Cl)c1` [Compound 149], the values for the GI50 in the experiment with HCT116 cells (setting [1]) and with SW480 cells (setting [2]) were 2.3 ± 0.4 µM and 2.3 ± 0.1 µM, respectively.
For `C=CCN1CC(=O)N2[C@@H](Cc3ccc(O)cc3)C(=O)N(Cc3ccc(Cl)c(Cl)c3)C[C@@H]2N1C(=O)NCc1ccccc1` [Compound 150], in that order: 1.4 ± 0.2 µM and 1.3 ± 0.1 µM.
As to `C=CCN1CC(=O)N2[C@@H](CC3(O)C=CC(=O)C=C3)C(=O)N(Cc3ccc(F)cc3F)C[C@@H]2N1C(=O)NCc1ccccc1` [Compound 151], the GI50 came out at 8.6 ± 0.9 µM in the experiment with HCT116 cells (setting [1]) and 11.2 ± 1.3 µM in the experiment with SW480 cells (setting [2]).
For `C=CCN1CC(=O)N2[C@@H](Cc3ccc(O)cc3)C(=O)N(Cc3cccc4scnc34)C[C@@H]2N1C(=O)NCc1ccccc1` [Compound 152], in that order: 0.6 ± 0.1 µM and 0.7 ± 0.1 µM.
Take `C=CCN1CC(=O)N2[C@@H](Cc3ccc(O)cc3)C(=O)N([C@H](C)c3ccccc3)C[C@@H]2N1C(=O)NCc1ccccc1` [Compound 153]: the GI50 was 14.3 ± 7 µM in the experiment with HCT116 cells (setting [1]) and 12.8 ± 1.6 µM with SW480 cells (setting [2]).
As for `C=CCN1CC(=O)N2[C@@H](CN([C@H](C)c3ccccc3)C(=O)[C@@H]2Cc2ccc(O)cc2)N1C(=O)NCc1ccccc1` [Compound 154], the GI50 with HCT116 cells (setting [1]) and in the experiment on SW480 cells (setting [2]) was 0.7 ± 0.2 µM each time.
Regarding `C=CCN1CC(=O)N2[C@@H](Cc3ccc(O)cc3)C(=O)N([C@@H](C)c3ccc(Cl)c4cccnc34)C[C@@H]2N1C(=O)NCc1ccccc1` [Compound 155], the GI50 with HCT116 cells (setting [1]) is 23.3 ± 1.2 µM; with SW480 cells (setting [2]), 26.3 ± 2.5 µM.
`C=CCN1CC(=O)N2[C@@H](Cc3ccc(O)c(F)c3)C(=O)N(Cc3ccc(F)cc3)C[C@@H]2N1C(=O)NCc1ccccc1` [Compound 156]: the concentration for 50% growth inhibition (GI50) with HCT116 cells (setting [1]) was 3.8 ± 0.2 µM; with SW480 cells (setting [2]), 3.7 ± 0.3 µM.
With `C=CCN1CC(=O)N2[C@@H](Cc3ccc(O)cc3)C(=O)N(Cc3ccc4c(c3)OCCO4)C[C@@H]2N1C(=O)NCc1ccccc1` [Compound 157], the GI50 in the experiment on HCT116 cells (setting [1]) came out at 1.2 ± 0.1 µM; in the experiment on SW480 cells (setting [2]), 1 ± 0.2 µM.
As for `C=CCN1CC(=O)N2[C@@H](CN([C@H](C)c3ccc(Cl)c4cccnc34)C(=O)[C@@H]2Cc2ccc(O)cc2)N1C(=O)NCc1ccccc1` [Compound 159], the concentration for 50% growth inhibition (GI50) with HCT116 cells (setting [1]) was found to be 8.2 ± 0.4 µM; in the experiment on SW480 cells (setting [2]), 9.1 ± 0.5 µM.
Regarding `C=CCN1CC(=O)N2[C@@H](Cc3ccc(O)cc3)C(=O)N([C@@H](C)c3cccc4cccnc34)C[C@@H]2N1C(=O)NCc1ccccc1` [Compound 160], the results for the GI50 with HCT116 cells (setting [1]) and in the experiment on SW480 cells (setting [2]) were 10.1 ± 1.3 µM and 13.7 ± 0.5 µM, respectively.
For `C=CCN1CC(=O)N2[C@@H](CN([C@H](C)c3cccc4cccnc34)C(=O)[C@@H]2Cc2ccc(O)cc2)N1C(=O)NCc1ccccc1` [Compound 161], in that order: 4.1 ± 0.5 µM and 4.2 ± 0.4 µM.
As to `C=CCN1CC(=O)N2[C@@H](Cc3ccc(O)cc3)C(=O)N(Cc3cccc(N(C)C)c3)C[C@@H]2N1C(=O)NCc1ccccc1` [Compound 162], the concentration for 50% growth inhibition (GI50) in the experiment with HCT116 cells (setting [1]) came to 1.3 ± 0.7 µM; in the experiment on SW480 cells (setting [2]), 1 ± 0.3 µM.
On to `C=CCN1CC(=O)N2[C@@H](Cc3ccc(O)cc3)C(=O)N(Cc3cccc(NC)c3)C[C@@H]2N1C(=O)NCc1ccccc1` [Compound 163], for which the GI50 was 2.3 ± 0.4 µM in the experiment with HCT116 cells (setting [1]) and 2.4 ± 0.2 µM in the experiment with SW480 cells (setting [2]).

The record behind these values is US7671054B1, “Reverse-turn mimetics and method relating thereto” (Choongwae Pharma Corporation, priority 2001, dated 2010).
